One may read the LD50 as the dose at which mortality reaches 50%. In general, ED50 refers to the dose at which the effect has come halfway, by size or by number of responders.

Structures are written as SMILES. Like-named read-outs stand apart in the source and are kept apart here.

A short description of data set [1]: Acute intravenous toxicity (LD50) and therapeutic index, Table II. The note with it: in vivo; for selectivity ratio: from LD50 and ED50, iv.; for LD50: iv.
The nature of data set [2]: Antianginal effect in rats after intravenous administration, method of Nieschulz, Popendiker and Hofmann. Format: in vivo. To be noted: Rattus norvegicus.

Take `CC(C)N(CCCO/N=C1\CCCC\C1=C/c1ccc(Cl)cc1)C(C)C` [compound F, 2-[(E)-(4-chlorophenyl)-methylene]-1-[(E)-(3-diisopropylamino)-propyloxyimino]-cyclohexane]: in data set [1], the selectivity ratio came to 120 and the LD50 came to 42 mg/kg. Besides, in data set [2] (read-out: ED50), the ED50 worked out at 0.35 mg/kg.

With `CN(C)CCO/N=C1\CCCCCC1Cc1ccccc1` (stereo not drawn) [compound D, 2-benzyl-1-[(E)-(2-dimethylamino-ethoxyimino)]-cycloheptane], in data set [1], the selectivity ratio stood at 76.9 and the LD50 is 40 mg/kg. Also, the ED50 in data set [2] (read-out: ED50) turned out to be 0.52 mg/kg.

Turning to `CC(C)N(CCCO/N=C1\CCCC\C1=C/c1ccccc1)C(C)C` [compound G, 2-[(E)-phenylmethylene]-1-[(E)-(3-diisopropylaminopropyloxyimino)]-cyclohexane], in data set [1], the selectivity ratio worked out at 32.9 and the LD50 worked out at 12.5 mg/kg. For the same compound, in data set [2] (read-out: ED50), the ED50 amounted to 0.38 mg/kg.

`CC(Cc1ccccc1)NCCC(c1ccccc1)c1ccccc1` (stereo not drawn) [Prenylamine, N-3,3-di-phenylpropyl-1-methylphenyl-ethylamine, reference compound]: in data set [1], the selectivity ratio worked out at 1.77 and the LD50 came to 11.5 mg/kg. For the same compound, it took a dose of 6.5 mg/kg to reach the 50% effect level in data set [2] (ED50).

These data come from US4621101A, “Pharmaceutical compositions with antianginal activity” (Egis Gyogyszergyar, priority 1984, dated 1986).
